Values quoted from earlier work as cited in patent US8193242B2 (XenoPort, Inc., priority 2005, dated 2012).

Conditions: following oral administration

In the case of `CC(C)(C)C(=O)Oc1ccc(C[C@H](N)C(=O)O)cc1O` [NB-355], the “Duration of circulating levodopa” value is listed as “prolonged” and the “Plasma concentrations of levodopa” value is listed as “low”.
